# Assay results reported in ChEMBL document CHEMBL1777701, “Glucosides with cyclic diarylpolynoid as novel C-aryl glucoside SGLT2 inhibitors” (Bioorg Med Chem Lett, 2011).
# Molecular target: T1, Sodium/glucose cotransporter 2 (Homo sapiens, UniProt P31639)
# T1 sequence (P31639 whole entry): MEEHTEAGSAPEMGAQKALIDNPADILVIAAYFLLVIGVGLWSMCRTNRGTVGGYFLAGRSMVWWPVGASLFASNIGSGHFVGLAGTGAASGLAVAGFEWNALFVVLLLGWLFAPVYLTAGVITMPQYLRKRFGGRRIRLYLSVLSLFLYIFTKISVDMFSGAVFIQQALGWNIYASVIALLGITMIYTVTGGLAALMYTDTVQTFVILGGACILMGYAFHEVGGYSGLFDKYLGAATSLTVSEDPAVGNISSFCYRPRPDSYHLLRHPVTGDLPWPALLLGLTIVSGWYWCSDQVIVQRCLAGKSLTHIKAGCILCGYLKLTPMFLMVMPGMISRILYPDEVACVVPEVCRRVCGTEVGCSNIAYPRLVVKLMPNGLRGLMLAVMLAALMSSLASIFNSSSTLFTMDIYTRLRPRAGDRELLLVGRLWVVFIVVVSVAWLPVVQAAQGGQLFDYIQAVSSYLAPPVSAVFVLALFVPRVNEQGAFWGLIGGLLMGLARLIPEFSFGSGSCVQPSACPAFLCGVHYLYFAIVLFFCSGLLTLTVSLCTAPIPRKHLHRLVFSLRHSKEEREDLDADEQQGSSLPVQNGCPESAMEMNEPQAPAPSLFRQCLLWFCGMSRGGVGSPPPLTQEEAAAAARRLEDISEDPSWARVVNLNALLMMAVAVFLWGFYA
# Assay: Inhibition of human SGLT2 expressed in CHO cells using methyl-alpha-D-glucopyranoside by liquid scintillation counting
# Format: cell-based
row,IC50 [nM],Structure (SMILES)
1,89.6,OC[C@H]1O[C@@H](c2ccc3c(c2)Cc2ccc(cc2)OC/C=C/CCC3)[C@H](O)[C@@H](O)[C@@H]1O
2,103,OC[C@H]1O[C@@H](c2ccc3c(c2)Cc2ccc(cc2)OC/C=C/CCCC3)[C@H](O)[C@@H](O)[C@@H]1O
3,81.9,OC[C@H]1O[C@@H](c2ccc3c(c2)Cc2ccc(cc2)OCCCCCC3)[C@H](O)[C@@H](O)[C@@H]1O
4,99.7,OC[C@H]1O[C@@H](c2ccc3c(c2)Cc2ccc(cc2)OCCCCCCC3)[C@H](O)[C@@H](O)[C@@H]1O
